According to patent publication US4605674A, “Substituted acetophenones and compositions containing them” (Hoffmann-La Roche Inc., priority 1979, dated 1986):
In brackets after ≈: the same amount, converted by molar mass. Where two headings read alike, the source gives them in different places.

How the values were obtained:
in vivo = settings: mouse, DDY mice, single dose
Method: ^(1) DDY mice weighing 15-20 g were treated with a single dose of the
compound. Survivors were recorded on day 21.
^(2) Compounds were dissolved in dimethylsulfoxide.
^(3) Compounds were suspended with solution of 0.5% carboxymethyl

HeLa cells = experiment: Cytotoxic symptoms in HeLa cells in the viral replication test; assay type: cell-based
Method: Effect of 2'-hydroxy-4,4',6'-trimethoxychalcone on the replication of rhinovirus HGP in HeLa cells was tested. Monolayers of HeLa cells (4×10^5) to which 2'-hydroxy-4,4',6'-trimethoxychelcone at various concentrations had been added were infected with rhinovirus HGP (4×10^4 PFU) for 60 minutes. Thereafter, the cells were washed with Eagle's minimum essential medium and further cultured with said medium containing 2% calf serum, 1% tryptose phosphate broth, 100 μg/ml of streptomycin sulfate and 20 units/ml of penicillin G. The total yield of the virus replicated in the culture medium was assayed 2 days after infection.
In the same manner the effect of 4'-ethoxy-2'-hydroxy-4,6'-dimethoxychalcone on the replication of rhinovirus type 21 in HeLa cells was tested.

rhinovirus HGP = experiment: Inhibition of viral cytopathogenic effect (c.p.e.) of rhinovirus HGP in HeLa cells; assay type: cell-based, human rhinoviruses; settings: Enterovirus, HeLa, 48 h, read-out: IC50 against rhinovirus HGP (concentration inhibiting the viral c.p.e. by 50%)
Method: A suspension of HeLa cells (6×10^4) was mixed with rhinovirus HGP (3×10^3 plaque forming units, PFU) and was plated in a microtest plate containing the compounds to be tested serially diluted. The cells were then cultured with Eagle's minimum essential medium containing 2% calf serum, 1% tryptose phosphate broth, 100 μg/ml of streptomycin sulfate and 20 unit/ml of penicillin G. Viral c.p.e. (cytopathogenic effect) was observed by a microscope after 2 days culture at 33° C.
The antiviral activity of the tested compounds is expressed by the concentration inhibiting the viral c.p.e. by 50% when compared to the control culture (IC50).

Coxsackievirus B1 = experiment: In vivo antiviral activity against lethal infection with Coxsackievirus B1 in mice; design: species or system DDY mice; settings: up to 21 days
Method: The activity of the compounds against lethal infection with Coxsackievirus B1 was tested in mice. DDY mice weighing about 15 g were infected intraperitoneally with about the tenfold LD50 dose of the virus. The infected mice were treated 9 times with the compounds either orally 0, 2, 5, 18, 24, 42, 48, 66 and 72 hours or intraperitoneally 1, 2, 4, 18 and 28 hours after infection. The survivals were recorded up to 21 days.
Non-treated (controls) mice died at 3 to 5 days after infection.

[1] = ip, i.p., dissolved in dimethylsulfoxide, day 21, read-out: LD50 i.p.
[2] = po, p.o., suspended in 0.5% carboxymethyl cellulose, day 21, read-out: LD50 p.o.
[3] = 20 mg/kg × 9, p.o., control 20%
[4] = 40 mg/kg × 9, p.o., control 20%

Row | SMILES | LD50 at 504 h (in vivo; [1]) | LD50 at 504 h (in vivo; [2]) | cytotoxic symptom (HeLa cells; 0.03 μg/ml, rhinovirus type 21 test) | IC50 (rhinovirus HGP) | Survival (Coxsackievirus B1; [3]) | Survival (Coxsackievirus B1; [4]) | cytotoxic symptom (HeLa cells; 0.1-1.0 μg/ml, rhinovirus HGP test) | Survival (Coxsackievirus B1; 40 mg/kg × 5, i.p., control 0%) | Survival (Coxsackievirus B1; 20 mg/kg × 5, i.p., control 0%)
1 | CCOc1cc(O)c(C(=O)/C=C/c2ccc(OC)cc2)c(OC)c1 [4'-ethoxy-2'-hydroxy-4,6'-dimethoxychalcone] | > 1000 mg/kg | > 5000 mg/kg | without showing any cytotoxic symptom | 0.002 to 0.006 µg/mL (≈ 0.00609 to 0.0183 µM) |  |  |  |  | 
2 | COc1ccc(/C=C/C(=O)c2c(O)cc(OC)cc2OC)cc1 [2'-hydroxy-4,4',6'-trimethoxychalcone] | > 1000 mg/kg | > 5000 mg/kg |  | 0.01 µg/mL (≈ 0.0318 µM) | 40% | 60% | without showing any cytotoxic symptom |  | 
3 | COc1cc(O)c(C(=O)C=Cc2cccs2)c(OC)c1 [2'-hydroxy-4',6'-dimethoxy-3-(2-thienyl)-acrylophenone] | > 1000 mg/kg | > 5000 mg/kg |  | 0.03 µg/mL (≈ 0.103 µM) | 30% | 70% |  |  | 
4 | COc1cc(O)c(C(=O)/C=C/c2ccc(OCc3ccccc3)c(OC)c2)c(OC)c1 [4-(benzyloxy)-2'-hydroxy-3,4',6'-trimethoxychalcone] | > 500 mg/kg | > 1500 mg/kg |  | 1 µg/mL (≈ 2.38 µM) |  |  |  |  | 
5 | COc1cc(O)c(C(=O)/C=C/c2ccccc2)c(OC)c1 [2'-hydroxy-4',6'-dimethoxychalcone] | > 1000 mg/kg | > 5000 mg/kg |  | 0.1 to 0.3 µg/mL (≈ 0.352 to 1.06 µM) |  |  |  |  | 
6 | COc1ccc(/C=C/C(=O)c2c(OC)cc(OC)cc2OC(C)=O)cc1 [2'-acetoxy-4,4',6'-trimethoxychalcone] | > 1000 mg/kg | > 5000 mg/kg |  | 0.006 µg/mL (≈ 0.0168 µM) | 40% | 70% |  | 50% | 
7 | CCOC(=O)Oc1cc(OC)cc(OC)c1C(=O)/C=C/c1ccc(OC)cc1 [2'-(ethoxycarbonyloxy)-4,4',6'-trimethoxychalcone] | > 500 mg/kg | > 4000 mg/kg |  | 0.04 µg/mL (≈ 0.104 µM) |  |  |  |  | 
8 | CCC(=O)Oc1cc(OC)cc(OC)c1C(=O)/C=C/c1ccc(OC)cc1 [2',4,4'-trimethoxy-6'-(propionyloxy)chalcone] | > 500 mg/kg | > 5000 mg/kg |  | 0.01 µg/mL (≈ 0.027 µM) |  |  |  | 75% | 25%
9 | COc1cc(O)c(C(=O)C=Cc2sccc2C)c(OC)c1 [2'-hydroxy-4',6'-dimethoxy-3-(3-methyl-2-thienyl)-acrylophenone] | > 500 mg/kg | > 1500 mg/kg |  | 0.1 µg/mL (≈ 0.329 µM) |  |  |  |  | 
10 | CCCCCCCCCCCCCCCCCC(=O)Oc1cc(OC)cc(OC)c1C(=O)/C=C/c1ccc(OC)cc1 [2',4,4'-trimethoxy-6'-(octadecanoyloxy)chalcone] | > 500 mg/kg | > 4000 mg/kg |  | 0.05 to 0.1 µg/mL (≈ 0.0861 to 0.172 µM) |  |  |  |  | 
11 | COc1cc(O)c(C(=O)/C=C/c2ccc(O)cc2)c(OC)c1 [2',4-dihydroxy-4',6'-dimethoxychalcone] | > 500 mg/kg | > 3200 mg/kg |  | 0.3 to 1 µg/mL (≈ 0.999 to 3.33 µM) |  |  |  |  | 
12 | CCC(=O)Oc1cc(OC)cc(OC)c1C(=O)/C=C/c1ccc(Cl)cc1 [4-chloro-2',4'-dimethoxy-6'-(propionyloxy)-chalcone] | > 1000 mg/kg | > 5000 mg/kg |  | 0.1 to 0.3 µg/mL (≈ 0.267 to 0.8 µM) |  |  |  |  | 
13 | COc1cc(O)c(C(=O)C=Cc2ccc(C)o2)c(OC)c1 [2'-hydroxy-4',6'-dimethoxy-3-(5-methyl-2-furyl)-acrylophenone] | > 500 mg/kg | > 2000 mg/kg |  | 0.03 µg/mL (≈ 0.104 µM) |  |  |  |  | 
14 | CCC(=O)Oc1cc(OC)cc(OC)c1C(=O)/C=C/c1ccc(SC)cc1 [2',4'-dimethoxy-4-(methylthio)-6'-(propionyloxy)-chalcone] | > 1000 mg/kg | > 5000 mg/kg |  | 0.03 to 0.1 µg/mL (≈ 0.0776 to 0.259 µM) |  |  |  |  | 
15 | CCOc1cc(OC)cc(O)c1C(=O)C=Cc1ccc(C)o1 [2'-ethoxy-6'-hydroxy-4'-methoxy-3-(5-methyl-2-furyl)-acrylophenone] | > 500 mg/kg | > 1000 mg/kg |  | 0.04 µg/mL (≈ 0.132 µM) |  |  |  |  | 
16 | COc1cc(O)c(C(=O)/C=C/c2ccc(C)cc2)c(OC)c1 | > 1000 mg/kg | > 5000 mg/kg |  | 0.01 µg/mL (≈ 0.0335 µM) |  |  |  |  | 
17 | CCOc1ccc(/C=C/C(=O)c2c(O)cc(OCC)cc2OCC)cc1 | > 1000 mg/kg | > 3000 mg/kg |  | 0.25 µg/mL (≈ 0.701 µM) |  |  |  |  | 
18 | COc1ccc(/C=C/C(=O)c2c(O)cc(OC)cc2OC(C)C)cc1 [2'-hydroxy-6'-isopropoxy-4,4'-dimethoxychalcone] | > 500 mg/kg | > 2700 mg/kg |  | 0.1 to 0.2 µg/mL (≈ 0.292 to 0.584 µM) |  |  |  |  | 
19 | CCOc1ccc(/C=C/C(=O)c2c(O)cc(OC)cc2OC)cc1 [4-ethoxy-2'-hydroxy-4',6'-dimethoxychalcone] | > 1000 mg/kg | > 5000 mg/kg |  | 0.02 to 0.05 µg/mL (≈ 0.0609 to 0.152 µM) |  |  |  |  | 
20 | COc1cc(/C=C/C(=O)c2c(O)cc(OC)cc2OC)cc(OC)c1 [2'-hydroxy-3,4',5,6'-tetramethoxychalcone] | > 500 mg/kg | > 5000 mg/kg |  | 0.3 µg/mL (≈ 0.871 µM) |  |  |  |  | 
21 | CCC(=O)Oc1cc(OC)cc(OC)c1C(=O)C=Cc1cccn1C [2',4'-dimethoxy-3-(1-methylpyrrol-2-yl)-6'-(propionyloxy)-acrylophenone] | > 500 mg/kg | > 5000 mg/kg |  | 0.3 µg/mL (≈ 0.874 µM) |  |  |  |  | 
22 | COc1cc(O)c(C(=O)C=Cc2cccn2C)c(OC)c1 [2'-hydroxy-4',6'-dimethoxy-3-(1-methyl-pyrrol-2-yl)-acrylophenone] | > 500 mg/kg | > 1000 mg/kg |  | 0.1 µg/mL (≈ 0.348 µM) |  |  |  |  | 
23 | CCOc1cc(OC)cc(O)c1C(=O)/C=C/c1ccc(OC)cc1 [2'-ethoxy-6'-hydroxy-4,4'-dimethoxychalcone] | > 500 mg/kg | > 1000 mg/kg |  | 0.01 µg/mL (≈ 0.0305 µM) |  |  |  |  | 
24 | CCOc1cc(OC)cc(OC(=O)CC)c1C(=O)/C=C/c1ccc(OC)cc1 [2'-ethoxy-4,4'-dimethoxy-6'-(propionyloxy)-chalcone] | > 1000 mg/kg | > 5000 mg/kg |  | 0.02 to 0.06 µg/mL (≈ 0.052 to 0.156 µM) |  |  |  |  | 
